Results on 11 molecules are retold here after patent US12187723B2 (BRISTOL-MYERS SQUIBB COMPANY, priority 2019, dated 2025).

In one test the target is T1, human TLR8 (Homo sapiens, UniProt Q9NR97).
T1 construct: host or cells: HEK-Blue cells
T1 sequence (Q9NR97 27-1041): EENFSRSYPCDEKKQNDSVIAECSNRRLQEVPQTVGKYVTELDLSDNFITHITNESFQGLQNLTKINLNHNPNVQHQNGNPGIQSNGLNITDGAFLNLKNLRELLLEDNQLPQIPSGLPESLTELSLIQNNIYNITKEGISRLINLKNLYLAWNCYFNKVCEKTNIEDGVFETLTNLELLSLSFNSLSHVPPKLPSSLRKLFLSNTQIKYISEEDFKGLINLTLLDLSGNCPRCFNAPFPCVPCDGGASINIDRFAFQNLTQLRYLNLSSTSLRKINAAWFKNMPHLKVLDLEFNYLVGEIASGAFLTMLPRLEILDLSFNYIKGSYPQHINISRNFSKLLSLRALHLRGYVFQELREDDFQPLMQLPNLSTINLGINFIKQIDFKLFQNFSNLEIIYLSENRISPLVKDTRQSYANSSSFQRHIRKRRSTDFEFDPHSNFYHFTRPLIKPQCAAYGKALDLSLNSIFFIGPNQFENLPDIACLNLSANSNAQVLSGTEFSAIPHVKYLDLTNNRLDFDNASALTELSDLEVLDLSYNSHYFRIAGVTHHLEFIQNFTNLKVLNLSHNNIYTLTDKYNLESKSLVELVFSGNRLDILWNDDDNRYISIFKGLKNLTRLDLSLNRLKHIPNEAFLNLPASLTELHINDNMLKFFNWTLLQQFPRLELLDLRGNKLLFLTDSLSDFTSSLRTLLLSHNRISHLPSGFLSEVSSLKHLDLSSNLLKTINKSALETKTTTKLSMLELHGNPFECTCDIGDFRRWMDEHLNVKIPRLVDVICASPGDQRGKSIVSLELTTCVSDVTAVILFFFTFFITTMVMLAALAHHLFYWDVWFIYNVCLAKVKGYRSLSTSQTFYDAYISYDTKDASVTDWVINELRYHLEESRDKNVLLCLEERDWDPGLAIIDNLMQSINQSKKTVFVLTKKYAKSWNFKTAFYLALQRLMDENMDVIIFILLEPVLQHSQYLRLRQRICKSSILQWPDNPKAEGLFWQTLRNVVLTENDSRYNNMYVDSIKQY
As to the kind of experiment: TLR8 inhibition reporter assay (HEK-Blue SEAP). As to conditions: HEK-Blue cells overexpressing human TLR8, R848 15.9 μM, 22 hour incubation. The format is cell-based. In outline: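 Screening used HEK-Blue cells overexpressing one human TLR (7, 8 or 9) and an IFN-β minimal promoter–NF-κB/AP-1 SEAP construct. Stimulation lasted 22 h at 37 °C with receptor-specific agonist: gardiquimod, R848 or ODN2006 at 7.5 μM, 15.9 μM and 5 nM.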

A further test deals with T2, human TLR7 (Homo sapiens, UniProt Q9NYK1).
T2 construct: host or cells: HEK-Blue cells
T2 sequence (Q9NYK1 27-1049): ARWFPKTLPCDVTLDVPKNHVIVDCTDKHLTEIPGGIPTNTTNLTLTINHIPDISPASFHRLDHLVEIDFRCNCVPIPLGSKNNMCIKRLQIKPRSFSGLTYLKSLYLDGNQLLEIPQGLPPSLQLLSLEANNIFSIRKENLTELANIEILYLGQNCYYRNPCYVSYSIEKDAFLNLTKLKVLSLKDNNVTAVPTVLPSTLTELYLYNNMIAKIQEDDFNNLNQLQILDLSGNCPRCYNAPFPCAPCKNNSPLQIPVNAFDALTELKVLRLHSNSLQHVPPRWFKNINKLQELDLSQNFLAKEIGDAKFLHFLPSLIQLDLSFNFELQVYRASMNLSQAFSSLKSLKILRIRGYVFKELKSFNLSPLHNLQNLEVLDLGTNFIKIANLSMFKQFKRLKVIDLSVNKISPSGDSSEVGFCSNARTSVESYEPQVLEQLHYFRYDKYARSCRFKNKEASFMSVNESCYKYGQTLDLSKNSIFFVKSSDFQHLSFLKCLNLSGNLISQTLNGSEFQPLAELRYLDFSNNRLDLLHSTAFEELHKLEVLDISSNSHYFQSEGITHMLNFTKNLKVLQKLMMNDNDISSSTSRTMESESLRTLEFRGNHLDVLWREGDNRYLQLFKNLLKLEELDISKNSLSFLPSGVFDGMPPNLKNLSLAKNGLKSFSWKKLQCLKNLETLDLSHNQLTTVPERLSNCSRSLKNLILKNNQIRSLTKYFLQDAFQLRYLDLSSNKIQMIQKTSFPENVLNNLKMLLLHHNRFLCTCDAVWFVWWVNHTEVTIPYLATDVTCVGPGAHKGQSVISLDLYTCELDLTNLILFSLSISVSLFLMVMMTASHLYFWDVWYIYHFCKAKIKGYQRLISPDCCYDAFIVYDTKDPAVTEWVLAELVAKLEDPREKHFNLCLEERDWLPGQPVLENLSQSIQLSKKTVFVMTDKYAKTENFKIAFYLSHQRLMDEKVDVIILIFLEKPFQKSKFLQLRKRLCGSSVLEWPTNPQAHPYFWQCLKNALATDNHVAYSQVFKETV
As to the kind of experiment: TLR7 inhibition reporter assay (HEK-Blue SEAP). As to conditions: HEK-Blue cells overexpressing human TLR7, gardiquimod 7.5 μM, 22 hour incubation. The format is cell-based. The gist of the method: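 Dose-response testing from 0.05 nM to 50 μM final was done on reporter cells for 22 hours at 37° C. Secreted SEAP was then detected, and inhibition was calculated as percent reduction of the agonist-plus-DMSO signal compared with wells given a known inhibitor.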

For `Cc1c(-c2cc3[nH]c(=O)n([C@H]4CC[C@@H](NC5COC5)CC4)c3cc2C(C)C)cn2ncnc2c1C` [Example 188, 5-(7,8-dimethyl-[1,2,4]triazolo[1,5-a]pyridin-6-yl)-6-isopropyl-1-((1s,4s)-4-(oxetan-3-ylamino)cyclohexyl)-1,3-dihydro-2H-benzo[d]imidazol-2-one], the values for the IC50 against human TLR8 and against human TLR7 were 0.95 nM and 7.14 nM, respectively.
On the same counts, the results for `CCc1cc2c(cc1-c1cc(OC)c3ncnn3c1)[nH]c(=O)n2[C@@H]1CCCN(C2CCCOC2)C1` (stereo partly drawn) [Example 215, 6-ethyl-5-(8-methoxy-[1,2,4]triazolo[1,5-a]pyridin-6-yl)-1-((3R)-1-(tetrahydro-2H-pyran-3-yl)piperidin-3-yl)-1,3-dihydro-2H-benzo[d]imidazol-2-one] are 13.7 nM and 13.4 nM.
With `CCc1cc2c(cc1-c1cc(OC)c3ncnn3c1)[nH]c(=O)n2[C@@H]1CCCN(CC2CCC2)C1` [Example 181, (R)-1-(1-(cyclobutylmethyl)piperidin-3-yl)-6-ethyl-5-(8-methoxy-[1,2,4]triazolo[1,5-a]pyridin-6-yl)-1,3-dihydro-2H-benzo[d]imidazol-2-one], the IC50 was 1.68 nM against human TLR8 and 0.81 nM against human TLR7.
On to `COc1cc(-c2cc3[nH]c(=O)n([C@@H]4CCCN(C5CCOC5)C4)c3cc2C(C)C)cn2ncnc12` (stereo partly drawn) [Example 217, 6-isopropyl-5-(8-methoxy-[1,2,4]triazolo[1,5-a]pyridin-6-yl)-1-((3R)-1-(tetrahydrofuran-3-yl)piperidin-3-yl)-1,3-dihydro-2H-benzo[d]imidazol-2-one], for which the IC50 on human TLR8 was determined as 5.4 nM; against human TLR7 it was 11.2 nM.
In the case of `CCN1CCC[C@H](n2c(=O)[nH]c3cc(-c4cc(C)c5ncnn5c4)c(C)cc32)C1` [Example 12, (S)-1-(1-ethylpiperidin-3-yl)-6-methyl-5-(8-methyl-[1,2,4]triazolo[1,5-a]pyridin-6-yl)-1,3-dihydro-2H-benzo[d]imidazol-2-one], the IC50 against human TLR8 came out at 92.5 nM; at human TLR7 it was 144 nM.
For the molecule `CCc1cc2c(cc1-c1cc(OC)c3ncnn3c1)[nH]c(=O)n2[C@H]1CC[C@@H](N(CC)CC)CC1` [Example 169, 1-((1s,4s)-4-(diethylamino)cyclohexyl)-6-ethyl-5-(8-methoxy-[1,2,4]triazolo[1,5-a]pyridin-6-yl)-1,3-dihydro-2H-benzo[d]imidazol-2-one], the IC50 against human TLR8 amounted to 0.74 nM; at human TLR7 it was 1.84 nM.
In the case of `COc1cc(-c2cc3[nH]c(=O)n([C@@H]4CCCN(C5CCCOC5)C4)c3cc2C(C)C)cn2ncnc12` (single isomer, unassigned) [Example 219], the IC50 came out at 0.15 nM on human TLR8 and 0.05 nM against human TLR7.
`COc1cc(-c2cc3[nH]c(=O)n([C@H]4CC[C@H](N(CC5CC5)CC5CC5)CC4)c3cc2C(C)C)cn2ncnc12` [Example 206, 1-((1r,4s)-4-(bis(cyclopropylmethyl)amino)cyclohexyl)-6-isopropyl-5-(8-methoxy-[1,2,4]triazolo[1,5-a]pyridin-6-yl)-1,3-dihydro-2H-benzo[d]imidazol-2-one]: the values for the IC50 at human TLR8 and against human TLR7 were 0.57 nM and 1.3 nM, respectively.
As for `CCC(CC)CN[C@H]1CC[C@@H](n2c(=O)[nH]c3cc(-c4cn5ncnc5c(C)c4C)c(C(C)C)cc32)CC1` [Example 198], the IC50 came out at 0.15 nM on human TLR8 and 4.92 nM against human TLR7.
In the case of `COc1cc(-c2cc3[nH]c(=O)n(C4CCC(N5CC(OC)C5)CC4)c3cc2C(C)C)cn2ncnc12` (stereo not shown) [Example 237, 6-isopropyl-5-(8-methoxy-[1,2,4]triazolo[1,5-a]pyridin-6-yl)-1-(4-(3-methoxyazetidin-1-yl)cyclohexyl)-1,3-dihydro-2H-benzo[d]imidazol-2-one], the IC50 on human TLR8 was 0.33 nM; at human TLR7, 1.31 nM.
On the same counts, the results for `CCCN1CCC[C@@H](n2c(=O)[nH]c3cc(-c4cc(OC)c5ncnn5c4)c(CC)cc32)C1` [Example 179, (R)-6-ethyl-5-(8-methoxy-[1,2,4]triazolo[1,5-a]pyridin-6-yl)-1-(1-propylpiperidin-3-yl)-1,3-dihydro-2H-benzo[d]imidazol-2-one] are 2.48 nM and 1.06 nM.
